# Experimental data taken from US9572862B2, “Methods for promoting lipolysis and oxidation in liver and adipose tissue using catestatin” (The Regents of the University of California, priority 2012, dated 2017).
# “Also recorded” adds a separate entry of the source. No end group written: not given here.
# Experiments:
# [1] = tested on: STAT3 and AMPK phosphorylation; assay: Stat3 and AMPK signaling in adipose explants from DIO mice; format: cell-based; conditions: CST in vivo, leptin 1 μM ex vivo 30 min
# Procedure: FIG. 9. Stat3 and AMPK signaling in the adipose tissue explants from DIO and Ob/Ob mice treated with saline, CST (in vivo) and leptin (ex vivo). Explants from DIO mice (A&B) and Ob/Ob mice (C&D) were incubated with saline or leptin (1 μM) for 30 min, homogenized and immunoblotted for phospho- and total Stat3 (A&C) as well as phospho- and total AMPK signals (B&D). Results are presented as the ratio of signal strength of phospho-over total.
# Adipose tissue explants were prepared as described (42). Epididymal fat pads from 12 hr fasted WT, Chga-KO, DIO and Ob/Ob mice with or without CST treatment were collected in Kreb-Ringer-phosphate (KRP) buffer containing 10 mM Hepes and 0.5% BSA. Tissues were minced to 1-2 mm size and treated with 100 nM CST, 1 μM leptin, or saline for 30 min (for signaling analysis) or 3 hr (for lipolysis and β-oxidation assays). Explants were also treated acutely with CST, leptin, a combination, or saline. At the end, incubation media were saved for analysis of glycerol and fatty acid release. Explants were washed prior to homogenization for immunoblotting and analysis of fatty acid oxidation.
# Adipose tissue explants after treatments ex vivo and tissues from mice treated in vivo were homogenized in a buffer containing phosphatase and protease inhibitors (20 mM Tris/HCl (pH 7.5), 250 mM sucrose, 2 mM EDTA, 2 mM EGTA, 2 mM Na3VO4, 10 mM NaF, 2 mM Na4P2O7, 1 mM phenylmethylsulfonyl fluoride, 20 μg/ml leupeptin, 10 μg/ml aprotinin, and 1 μM LR-microcystin) as described (38,44). Homogenates were subjected to SDS-PAGE and immunoblotted. Primary antibodies for AMPK and Stat3 were from Cell Signaling Technology (Beverly, Mass.). The chemiluminescence kit was from Pierce (Rockford, Ill.).
# 3T3-L1 adipocytes = assay: Leptin in adipocyte culture media after CST; format: cell-based; conditions: cultured 3T3-L1 adipocytes
# Procedure: FIG. 1. Plasma parameters of wild-type (WT) and Chga-KO mice treated with saline or CST. (A) Plasma CST from saline or CST (5 μg/g BW, i.p./day) treated WT mice (28 week old) on normal chow (NCD) and high fat diet (60% fat for 16 weeks) as well as from Chga-KO mice (28 week old) on NCD. Body weights (B) and epididymal fat pad size normalized to body weight (C) in 28 week old WT and Chga-KO mice treated with saline or CST for 12 days. Plasma triglyceride (TG) (D), glycerol (E), non-esterified fatty acids (NEFA) (F), and leptin (G) in 28 week old WT and Chga-KO mice after treatment with saline or CST for 12 days. (H) Leptin in adipocyte culture media after treatment with saline or CST.
# Mice were fasted for 12 hr prior to blood draw. Triglycerides (TG) and non-esterified fatty acids (NEFA) were assayed using kits from Wako Diagnostics (Richmond, Va.). Glycerol was assayed using a kit from Sigma (St Louis, Mo.). Media from the explant cultures and mouse serum were analysed for glycerol and NEFA as a measure of lipolysis. […]
# Oxidation of radiolabeled palmitate in the homogenates of adipose tissue explants as described previously (45). […] Fatty acid oxidation in cells was determined by modifying a published method (46). […] The filter discs were counted to determine the amount of ^14CO2 absorbed in the papers. […]
# [2] = Insulin secretion in culture; format: cell-based
# liver of Chga-KO mice = assay: Hepatic gene expression by real-time PCR after CST; format: in vivo; conditions: CST 12 days
# Procedure: FIG. 4. Effects of CST on hepatic expression of genes involved in lipogenesis and fatty acid oxidation. Relative mRNA expression of genes involved in fatty acid oxidation in liver of WT and Chga-KO mice after treatment with saline or CST (5 μg/g BW, i.p./day) for 12 days: carnitine palmitoyltransferase 1a (Cpt1α) (A), peroxisome proliferator-activated receptor-alpha (Pparα) (B), acyl-CoA oxidase 1 (Acox1) (C) and uncoupling protein 2 (Ucp2) (D). (E) Relative expression of genes involved in lipogenesis in liver of Chga-KO mice after treatment with saline or CST (5 μg/g BW, i.p./day) for 12 days: sterol regulatory element-binding protein 1 (Srebp-1), peroxisome proliferator-activated receptor-gamma (Pparγ), glycerol-3-phosphate acyltransferase (Gpat4) and Cluster of Differentiation 36 (Cd36).
# RNA was extracted using a kit (RNeasy Plus, Qiagen, Valencia, Calif.) according to the manufacturer's specifications. After DNase digestion, 100 ng of RNA was transcribed into cDNA in a 20-μl reaction using a High Capacity cDNA kit (Invitrogen, Carlsbad, Calif.), analyzed, and amplified. PCR was performed in a 25-μl reaction containing 5 μl of cDNA (one-fifth diluted), 2×SYBR Green PCR Master Mix, and the primers described in Table 1 (400 nM each). Differences in cycle threshold values (ΔCt) between target and the housekeeping gene GAPDH were used to calculate the levels of expression.
sequence,measurement,setting,value
SSMKLSFRARAYGFRGPGPQL [CST],AMPK phosphorylation,[1],not AMPK phosphorylation
same,STAT3 phosphorylation,[1],stimulated only STAT3 phosphorylation
same,leptin production / release,3T3-L1 adipocytes,inhibited leptin production; also recorded: inhibited leptin release
same,insulin secretion in culture,[2],Stimulated Insulin Secretion in Culture in a Glucose-Independent Manner
same,liver mRNA expression of Acox,liver of Chga-KO mice,augmented
same,liver mRNA expression of Cd36,liver of Chga-KO mice,stimulated
same,liver mRNA expression of Cpt1α,liver of Chga-KO mice,augmented
same,liver mRNA expression of Gpat4,liver of Chga-KO mice,stimulated
same,liver mRNA expression of Pparα,liver of Chga-KO mice,augmented
same,liver mRNA expression of Pparγ,liver of Chga-KO mice,no effect
same,liver mRNA expression of Srebp-1,liver of Chga-KO mice,no effect
same,liver mRNA expression of Ucp2,liver of Chga-KO mice,augmented
